Reference: patent publication US20040223967A1, “Blood coagulation factor-activating protein and antibody thereto” (RIKEN, priority 2000, published 2004)
Several values for one entry are separate records, joined by “and”; a condition that tells them apart may be missing. Equal entries are not always repeated. Where two headings read alike, the source gives them in different places. Values belong to the molecule of their own block, whether it stands above or below them.

Key:
F-IX-activating enzyme = target: T1, F-IX-activating enzyme (Homo sapiens, UniProt P08246); assay: Assay of inhibitor effect: fluorogenic substrate Suc(OMe)-Ala-Ala-Pro-Val-MCA with crude enzyme extract; format: biochemical
T1 construct: 1-219; from tissue; host or cells: erythrocyte membranes (crude surfactant extract)
T1 sequence (P08246 30-248): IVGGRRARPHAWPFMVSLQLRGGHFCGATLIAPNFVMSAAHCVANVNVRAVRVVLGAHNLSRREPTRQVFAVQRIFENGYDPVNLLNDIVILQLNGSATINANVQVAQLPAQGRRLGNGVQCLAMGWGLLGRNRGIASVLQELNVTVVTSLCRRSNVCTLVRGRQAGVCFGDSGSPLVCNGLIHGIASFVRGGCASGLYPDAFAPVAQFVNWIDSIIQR
Experimental: Relative activity of the enzyme is a ratio of the fluorogenic intensity of the mixture of a fluorogenic synthetic substrate (Suc(OME)-Ala-Ala-Pro-Val-MCA), specific for elastase, the enzyme and inhibitor or antibody to that of the mixture of the fluorogenic substrate and enzyme not containing inhibitor or antibody (control).
To measure the fluorescence intensity of a mixture of inhibitor and the enzyme or elastase, 3 μl of 2 mM fluorogenic synthetic substrate, 2 μl of the enzyme or elastase (concentration: 0.5 mU) and inhibitor or antibody were added to 190 μl HEPES buffer. After incubating the mixture for 30 min at 37° C., 100 μl of the incubated mixture was added to 2 ml of HEPES buffer and the fluorescence intensity was measured using a fluorescence spectrophotometer at λex=380 nm and λem=460 nm.
In the experiments, a crude extract with enzymatic activity, before subjecting to anion-exchange chromatography, was used.

[1] = target: T2, factor IX-activating protein (erythrocyte membrane extract) (Homo sapiens, UniProt P08246); assay: Activation of factor IX by the erythrocyte membrane extract, examined by SDS-PAGE; format: biochemical; conditions: inhibitor added to solution containing the extract
T2 construct: 1-219; from tissue; host or cells: erythrocyte membranes (surfactant extract / chromatography fractions)
T2 sequence (P08246 30-248): T1 sequence (P08246 30-248)
Experimental: 25 μg of pure factor IX (Enzyme Res. Lab.) was dissolved in 50 μl of HEPES buffer, and was mixed with washed erythrocytes (hematocrit: about 40%). 10 μl of 26 mM CaCl2 was added to the suspension, and the mixture was incubated at 37° C. for 30 minutes, and then 30 μl of 0.1 M EDTA was added to the suspension to stop the reaction. The suspension was centrifuged to completely remove erythrocytes, and the supernatant was subjected to SDS-PAGE and Western blot analysis to examine whether the coagulation factor was activated or not. 7.5 to 15% gradient gel was used, and electrophoresis was performed at a constant current of 20 mA in the presence of 0.1% SDS. Protein bands were stained for 3 hours with a 50% ethanol (v/v)/7% acetic acid solution containing 0.25% (w/v) Coomassie brilliant blue R-250 (CBB). When activated factor IX was detected by SDS-PAGE, immunostaining was performed to confirm that the resulting band was of activated coagulation factor IX. In the immunostaining procedures, the gel subjected to electrophoresis was buffered using Towbin buffer (25 mM Tris-HCl (pH 8.3), 192 mM glycin, 20% (v/v) methanol, 0.1% SDS) for 15 minutes, followed by transferring to a polyvinylidene difluoride (PVDF) membrane under conditions of 15V and 150 mA. […]

[2] = material concentration 1 mM, 30 min at 37° C., control without material = 100.0

Molecule: [Cl-].[Na+] [NaCl]
- Relative activity of the enzyme (%) (F-IX-activating enzyme): 95.5% and 84.3%

Molecule: O=C(O)CN(CCN(CC(=O)O)CC(=O)O)CC(=O)O [EDTA, reference compound]
- Relative activity of the enzyme (%) (F-IX-activating enzyme; [2]): 74.5%
- Relative activity of the enzyme (%) (F-IX-activating enzyme; material concentration 10 mM, 30 min at 37° C., control without material = 100.0): 27.0%

Molecule: CC(=O)N[C@@H](CC(C)C)C(=O)N[C@@H](CC(C)C)C(=O)N[C@H](C=O)CCCNC(=N)N [Leupeptin, reference compound]
- Relative activity of the enzyme (%) (F-IX-activating enzyme; [2]): 78.5%

Molecule: O=S(=O)(F)Cc1ccccc1 [PMSF, reference compound]
- Relative activity of the enzyme (%) (F-IX-activating enzyme; [2]): 19.2%

Molecule: c1cnc2c(c1)ccc1cccnc12 [Phenanthroline, reference compound]
- Relative activity of the enzyme (%) (F-IX-activating enzyme; [2]): 28.8%

Further lines, with some results ahead:

- Relative activity of the enzyme (%) (F-IX-activating enzyme; [2]): 100.5%
Molecule: [Cl-].[Cl-].[Mg+2] [MgCl2]

- Relative activity of the enzyme (%) (F-IX-activating enzyme; [2]): 156.4%
Molecule: [Ca+2].[Cl-].[Cl-] [CaCl2]

- activation of factor IX by the extract [1]: inhibited
B1: soybean trypsin inhibitor (protein)
chain: DFVLDNEGNPLENGGTYYILSDITAFGGIRAAPTGNERCPLTVVQSRNELDKGIGTIISSPYRIRFIAEGHPLSLKFDSFAVIMLCVGIPTEWSVVEDLPEGPAVKIGENKDAMDGWFRLERVSDDEFNNYKLVFCPQQAEDDKCGDIGISIDHDDGTRRLVVSKNKPLVVQFQKLDKESL
- Relative activity of the enzyme (%) (F-IX-activating enzyme; material concentration 1%, 30 min at 37° C., control without material = 100.0): 65.1%
